Measurements reported in US6172087A, “N-oxide of heterocyclic ester, amide, thioester, or ketone hair growth compositions and uses” (GPI NIL Holding, Inc., priority 1998, dated 2001).
Entries after “also recorded” stand apart in the source; their conditions may differ.

Experiments:
[1] = cited from earlier work
C57 black 6 mice = test: In Vivo Hair Generation Test With C57 Black 6 Mice, Experiment A; conditions: 30 μM, topical, every 48 hours (3 applications), after 6 weeks
Text: Care was taken not to nick or cause abrasion to the underlaying dermal layers. The animals were in anagen growth phase, as indicated by the pinkish color of the skin. […] Hair growth was quantitated by the percent of shaved area covered by new hair growth during this time period.

In the case of `C=CC[C@@H]1/C=C(\C)C[C@H](C)C[C@H](OC)[C@H]2O[C@@](O)(C(=O)C(=O)N3CCCC[C@H]3C(=O)O[C@H](/C(C)=C/[C@@H]3CC[C@@H](O)[C@H](OC)C3)[C@H](C)[C@@H](O)CC1=O)[C@H](C)C[C@@H]2OC` [FK506], the “hair growth on topical, but not oral, application (in words)” value [1] is given as “stimulates hair growth in a dose-dependent manner”.

In the case of `CCC(C)(C)C(=O)C(=O)N1CCC[C@H]1C(=O)OCCCc1cccnc1` [GPI 1046, 3-(3-pyridyl)-1-propyl(2s)-1-(3,3-dimethyl-1,2-dioxopentyl)-2-pyrrolidinecarboxylate], the “hair regrowth in the shaved area (in words)” value (C57 black 6 mice) is reported as “essentially complete hair regrowth and their shaved areas were indistinguishable from unshaven C57 black 6 mice; also recorded: essentially, complete hair regrowth in the shaved area”.
